Measurements reported in US12252524B2, “GIP/GLP1 co-agonist compounds” (Eli Lilly and Company, priority 2018, dated 2025).
pEC50: −log10 of the molar value. Numbered stars: 1 amine (or outer) side, 2 acyl side, 3 side chain; on linkers, the order of the positions; unused ones are H or OH. Square brackets hold non-standard residues; d marks the D form. Side chains are listed from the residue outwards. Peptide text beside a SMILES is read from it. * marks the point of attachment. C20 diacid = O=C(O)CCCCCCCCCCCCCCCCCCC(=O)*; C18 diacid = O=C(O)CCCCCCCCCCCCCCCCC(=O)*; γGlu = O=C(O)[C@H](CCC(=O)[*:2])N[*:1]; αMeY = C[C@](N)(Cc1ccc(O)cc1)C(=O)O; αMeL = CC(C)C[C@](C)(N)C(=O)O; Orn = NCCC[C@H](N)C(=O)O; AEEA = NCCOCCOCC(=O)O; Aib = CC(C)(N)C(=O)O

Key:
[1] = molecular target: human GLP-1 receptor (GLP-1R) (Homo sapiens, UniProt P43220); assay: cAMP pharmacological functional assay in presence of casein, hGLP-1R; format: cell-based; conditions: HEK293 cells expressing hGLP-1R, 0.1% Casein, geometric mean; read-out: hGLP1R cAMP Rel EC50 nM (SEM, n)
Chain of human GLP-1 receptor (GLP-1R) (P43220 24-463): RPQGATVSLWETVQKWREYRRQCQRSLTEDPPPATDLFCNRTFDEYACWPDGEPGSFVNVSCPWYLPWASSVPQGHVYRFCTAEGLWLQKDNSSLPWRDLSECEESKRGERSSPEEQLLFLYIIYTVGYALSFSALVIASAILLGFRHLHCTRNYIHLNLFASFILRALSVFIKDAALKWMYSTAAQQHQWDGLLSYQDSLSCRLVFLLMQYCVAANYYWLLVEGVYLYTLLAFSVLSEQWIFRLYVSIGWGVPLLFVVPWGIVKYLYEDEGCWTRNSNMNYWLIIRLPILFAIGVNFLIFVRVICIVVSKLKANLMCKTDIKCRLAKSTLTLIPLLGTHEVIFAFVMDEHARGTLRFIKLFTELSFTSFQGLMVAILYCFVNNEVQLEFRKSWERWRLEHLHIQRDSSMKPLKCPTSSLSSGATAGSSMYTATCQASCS

[2] = molecular target: T1, gastric inhibitory peptide receptor (GIPR) (Homo sapiens, UniProt P48546); assay: cAMP pharmacological functional assay in presence of casein, hGIPR; format: cell-based; conditions: HEK293 cells expressing hGIPR, 0.1% Casein, geometric mean; read-out: hGIPR cAMP Rel EC50 nM (SEM, n)
T1 sequence (P48546 22-466): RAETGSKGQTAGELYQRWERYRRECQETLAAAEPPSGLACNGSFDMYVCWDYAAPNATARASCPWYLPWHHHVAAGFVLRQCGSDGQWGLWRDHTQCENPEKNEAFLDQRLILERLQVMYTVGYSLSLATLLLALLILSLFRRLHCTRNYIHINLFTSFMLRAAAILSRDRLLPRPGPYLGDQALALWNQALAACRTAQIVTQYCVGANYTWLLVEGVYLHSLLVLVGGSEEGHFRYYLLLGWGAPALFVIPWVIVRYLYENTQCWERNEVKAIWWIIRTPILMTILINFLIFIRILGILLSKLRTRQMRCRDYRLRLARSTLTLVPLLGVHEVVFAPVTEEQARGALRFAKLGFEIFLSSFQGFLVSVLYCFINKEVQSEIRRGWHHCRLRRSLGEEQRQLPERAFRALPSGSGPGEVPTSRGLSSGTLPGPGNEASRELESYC

[3] = molecular target: T2, human GLP-1R (Homo sapiens, UniProt P43220); assay: GLP-1R CHO cell β-arrestin recruitment assay; format: cell-based; design: host or cells: CHO-K1 PathHunter cells, assay-ready frozen; conditions: for EC50: PathHunter β-arrestin-2 recruitment, 0.1% casein, read-out: hGLP1R B-Arrestin2 Rel EC50 uM (SEM, n); for hGLP1R B-Arrestin2 % Top: normalized to GLP-1 maximum control
T2 sequence (P43220 24-463): as the sequence (P43220 24-463) above
Procedure, shortened: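 Peptide-induced β-arrestin-2 recruitment measured by enzyme-fragment complementation luminescence after 90 min at 37 °C plus 60 min detection at RT.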

[4] = molecular target: T2, human GLP-1R; assay: GLP-1R HEK293 cell membrane [35S]GTPγS binding assay; format: biochemical; design: expressed in transfected cells; host or cells: HEK293 cells expressing human GLP-1R; membranes; conditions: HEK293 cell membranes expressing human GLP-1R, [35S]GTPγS binding; read-out: hGLP1R GTPgS Rel EC50 nM (SEM, n)
Procedure, shortened: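 Agonist-driven Gαs activation read as [35S]GTPγS ([…]) binding to receptor-expressing HEK293 membranes, 30 min at room temperature, pH 7.4. Detection by anti-Gαs immunocapture on scintillation beads; EC50 derived from four-parameter logistic concentration-response fit.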

## CC[C@H](C)[C@H](NC(=O)[C@H](CC(C)C)NC(=O)[C@](C)(Cc1ccc(O)cc1)NC(=O)[C@H](CCC(=O)O)NC(=O)[C@@H](NC(=O)[C@H](Cc1ccccc1)NC(=O)[C@H](C)NC(=O)C(C)(C)NC(=O)[C@H](CCC(N)=O)NC(=O)[C@H](C)NC(=O)[C@H](CCCCNC(=O)COCCOCCNC(=O)CC[C@H](NC(=O)CCCCCCCCCCCCCCCCCCC(=O)O)C(=O)O)NC(=O)[C@H](CCCCN)NC(=O)[C@H](CC(=O)O)NC(=O)[C@H](CC(C)C)NC(=O)[C@](C)(CC(C)C)NC(=O)[C@@H](NC(=O)[C@H](CO)NC(=O)[C@H](Cc1ccc(O)cc1)NC(=O)[C@H](CC(=O)O)NC(=O)[C@H](CO)NC(=O)[C@@H](NC(=O)[C@H](Cc1ccccc1)NC(=O)[C@@H](NC(=O)CNC(=O)[C@H](CCC(=O)O)NC(=O)C(C)(C)NC(=O)[C@H](N)Cc1ccc(O)cc1)[C@@H](C)O)[C@@H](C)O)[C@@H](C)CC)[C@@H](C)CC)C(=O)N[C@@H](C)C(=O)NCC(=O)NCC(=O)N1CCC[C@H]1C(=O)N[C@@H](CO)C(=O)N[C@@H](CO)C(=O)NCC(=O)N[C@@H](C)C(=O)N1CCC[C@H]1C(=O)N1CCC[C@H]1C(=O)N1CCC[C@H]1C(=O)N[C@@H](CO)C(N)=O [Example 373] (H-[dY][Aib]EGTFTSDYSI[αMeL]LDKK([AEEA-γGlu-C20 diacid])AQ[Aib]AFIE[αMeY]LIAGGPSSGAPPPS-NH2)
[1]
  EC50: 0.436 nM
[2]
  EC50: 0.185 nM
[3]; CHO-K1 cells
  EC50: 0.00954 µM
[3]
  hGLP1R B-Arrestin2 % Top: 22.9%
[4]
  EC50: 0.336 nM

## CC[C@H](C)[C@H](NC(=O)[C@H](CC(C)C)NC(=O)[C@](C)(Cc1ccc(O)cc1)NC(=O)[C@H](CCC(=O)O)NC(=O)[C@@H](NC(=O)[C@H](Cc1ccccc1)NC(=O)[C@H](CCC(=O)O)NC(=O)C(C)(C)NC(=O)[C@H](CCC(N)=O)NC(=O)[C@H](C)NC(=O)[C@H](CCCCNC(=O)COCCOCCNC(=O)COCCOCCNC(=O)CC[C@H](NC(=O)CCCCCCCCCCCCCCCCCCC(=O)O)C(=O)O)NC(=O)[C@H](CCCCN)NC(=O)[C@H](CC(=O)O)NC(=O)[C@H](CC(C)C)NC(=O)[C@](C)(CC(C)C)NC(=O)[C@@H](NC(=O)[C@H](CO)NC(=O)[C@H](Cc1ccc(O)cc1)NC(=O)[C@H](CC(=O)O)NC(=O)[C@H](CO)NC(=O)[C@@H](NC(=O)[C@H](Cc1ccccc1)NC(=O)[C@@H](NC(=O)CNC(=O)[C@H](CCC(=O)O)NC(=O)C(C)(C)NC(=O)[C@H](N)Cc1ccc(O)cc1)[C@@H](C)O)[C@@H](C)O)[C@@H](C)CC)[C@@H](C)CC)C(=O)N[C@@H](CCC(=O)O)C(=O)NCC(=O)NCC(=O)N1CCC[C@H]1C(=O)N[C@@H](CO)C(=O)N[C@@H](CO)C(=O)NCC(=O)N[C@@H](C)C(=O)N1CCC[C@H]1C(=O)N1CCC[C@H]1C(=O)N1CCC[C@H]1C(=O)N[C@@H](CO)C(N)=O [Example 379] (H-[dY][Aib]EGTFTSDYSI[αMeL]LDKK([AEEA-AEEA-γGlu-C20 diacid])AQ[Aib]EFIE[αMeY]LIEGGPSSGAPPPS-NH2)
[1]
  EC50: 0.238 nM
[2]
  EC50: 0.079 nM
[3]; CHO-K1 cells
  EC50: 0.0181 µM
[3]
  hGLP1R B-Arrestin2 % Top: 31.9%
[4]
  EC50: 0.239 nM

## CC[C@H](C)[C@H](NC(=O)[C@H](CC(C)C)NC(=O)[C@](C)(Cc1ccc(O)cc1)NC(=O)[C@H](CCC(=O)O)NC(=O)[C@@H](NC(=O)[C@H](Cc1ccccc1)NC(=O)[C@H](CCC(=O)O)NC(=O)C(C)(C)NC(=O)[C@H](CCC(N)=O)NC(=O)[C@H](C)NC(=O)[C@H](CCCCNC(=O)COCCOCCNC(=O)COCCOCCNC(=O)CC[C@H](NC(=O)CCCCCCCCCCCCCCCCC(=O)O)C(=O)O)NC(=O)[C@H](CCCCN)NC(=O)[C@H](CC(=O)O)NC(=O)[C@H](CC(C)C)NC(=O)[C@](C)(CC(C)C)NC(=O)[C@@H](NC(=O)[C@H](CO)NC(=O)[C@H](Cc1ccc(O)cc1)NC(=O)[C@H](CC(=O)O)NC(=O)[C@H](CO)NC(=O)[C@@H](NC(=O)[C@H](Cc1ccccc1)NC(=O)[C@@H](NC(=O)CNC(=O)[C@H](CCC(=O)O)NC(=O)C(C)(C)NC(=O)[C@H](N)Cc1ccc(O)cc1)[C@@H](C)O)[C@@H](C)O)[C@@H](C)CC)[C@@H](C)CC)C(=O)N[C@@H](C)C(=O)NCC(=O)NCC(=O)N1CCC[C@H]1C(=O)N[C@@H](CO)C(=O)N[C@@H](CO)C(=O)NCC(=O)N[C@@H](C)C(=O)N1CCC[C@H]1C(=O)N1CCC[C@H]1C(=O)N1CCC[C@H]1C(=O)N[C@@H](CO)C(N)=O [Example 374] (H-[dY][Aib]EGTFTSDYSI[αMeL]LDKK([AEEA-AEEA-γGlu-C18 diacid])AQ[Aib]EFIE[αMeY]LIAGGPSSGAPPPS-NH2)
[1]
  EC50: 0.19 nM
[2]
  EC50: 0.0468 nM
[3]; CHO-K1 cells
  EC50: 0.0218 µM
[3]
  hGLP1R B-Arrestin2 % Top: 34.7%
[4]
  EC50: 0.345 nM

## CC[C@H](C)[C@H](NC(=O)[C@H](CC(C)C)NC(=O)[C@](C)(Cc1ccc(O)cc1)NC(=O)[C@H](CCC(=O)O)NC(=O)[C@@H](NC(=O)[C@H](Cc1ccccc1)NC(=O)[C@H](C)NC(=O)C(C)(C)NC(=O)[C@H](CCC(N)=O)NC(=O)[C@H](C)NC(=O)[C@H](CCCCNC(=O)COCCOCCNC(=O)COCCOCCNC(=O)CC[C@H](NC(=O)CCCCCCCCCCCCCCCCCCC(=O)O)C(=O)O)NC(=O)[C@H](CCCN)NC(=O)[C@H](CC(=O)O)NC(=O)[C@H](CC(C)C)NC(=O)[C@](C)(CC(C)C)NC(=O)[C@@H](NC(=O)[C@H](CO)NC(=O)[C@H](Cc1ccc(O)cc1)NC(=O)[C@H](CC(=O)O)NC(=O)[C@H](CO)NC(=O)[C@@H](NC(=O)[C@H](Cc1ccccc1)NC(=O)[C@@H](NC(=O)CNC(=O)[C@H](CCC(=O)O)NC(=O)C(C)(C)NC(=O)[C@H](N)Cc1ccc(O)cc1)[C@@H](C)O)[C@@H](C)O)[C@@H](C)CC)[C@@H](C)CC)C(=O)N[C@@H](C)C(=O)NCC(=O)NCC(=O)N1CCC[C@H]1C(=O)N[C@@H](CO)C(=O)N[C@@H](CO)C(=O)NCC(=O)N[C@@H](C)C(=O)N1CCC[C@H]1C(=O)N1CCC[C@H]1C(=O)N1CCC[C@H]1C(=O)N[C@@H](CO)C(N)=O [Example 366] (H-[dY][Aib]EGTFTSDYSI[αMeL]LD[Orn]K([AEEA-AEEA-γGlu-C20 diacid])AQ[Aib]AFIE[αMeY]LIAGGPSSGAPPPS-NH2)
[1]
  EC50: 0.366 nM
[2]
  EC50: 0.0889 nM
[3]; CHO-K1 cells
  EC50: 0.00557 µM
[3]
  hGLP1R B-Arrestin2 % Top: 21.2%
[4]
  EC50: 0.409 nM

## CC[C@H](C)[C@H](NC(=O)[C@H](CC(C)C)NC(=O)[C@H](Cc1ccc(O)cc1)NC(=O)[C@H](CCC(=O)O)NC(=O)[C@@H](NC(=O)[C@H](Cc1ccccc1)NC(=O)[C@H](CCC(=O)O)NC(=O)C(C)(C)NC(=O)[C@H](CCC(N)=O)NC(=O)[C@H](C)NC(=O)[C@H](CCCCNC(=O)COCCOCCNC(=O)CC[C@H](NC(=O)CCCCCCCCCCCCCCCCCCC(=O)O)C(=O)O)NC(=O)[C@H](CCCCN)NC(=O)[C@H](CC(=O)O)NC(=O)[C@H](CC(C)C)NC(=O)[C@](C)(CC(C)C)NC(=O)[C@@H](NC(=O)[C@H](CO)NC(=O)[C@H](Cc1ccc(O)cc1)NC(=O)[C@H](CC(=O)O)NC(=O)[C@H](CO)NC(=O)[C@@H](NC(=O)[C@H](Cc1ccccc1)NC(=O)[C@@H](NC(=O)CNC(=O)[C@H](CCC(=O)O)NC(=O)C(C)(C)NC(=O)[C@H](N)Cc1ccc(O)cc1)[C@@H](C)O)[C@@H](C)O)[C@@H](C)CC)[C@@H](C)CC)C(=O)N[C@@H](C)C(=O)NCC(=O)NCC(=O)N1CCC[C@H]1C(=O)N[C@@H](CO)C(=O)N[C@@H](CO)C(=O)NCC(=O)N[C@@H](C)C(=O)N1CCC[C@H]1C(=O)N1CCC[C@H]1C(=O)N1CCC[C@H]1C(=O)N[C@@H](CO)C(N)=O [Example 378] (H-[dY][Aib]EGTFTSDYSI[αMeL]LDKK([AEEA-γGlu-C20 diacid])AQ[Aib]EFIEYLIAGGPSSGAPPPS-NH2)
[1]
  EC50: 0.191 nM
[2]
  EC50: 0.067 nM
[3]; CHO-K1 cells, 0.1% w/v hydrolyzed Casein, read-out: hGLP1R B-Arrestin2 Rel EC50
  pEC50: < 4.99
[3]; CHO-K1 cells
  EC50: > 10.2 µM
[4]
  EC50: 0.359 nM
